Where “and” joins values, the source holds several entries; their conditions need not be identical. Identical values can stand only once.
Key:
Assay type in all cases: cell-based, Plasmodium falciparum
PfCRT variant E207T = experiment: CQ uptake assay, oocytes expressing E207T
Description: (§1) Site-directed mutagenesis of PfCRT^Dd2 was performed as described using the megaprimer method with overlap extension[21],[54]. The primer pairs used are listed in Supplementary Table 6. Please note that a codon-optimized and oocyte-adapted version of PfCRT^Dd2 was used[22] (Supplementary Fig. 16). The resulting DNA fragment was cloned into the SP64T expression vector and verified by sequencing.
(§2) Oocytes were obtained as described previously. Briefly, adult (>2 years old) female X. laevis frogs (NASCO) were anesthetized in a cooled solution of ethyl 3-amino benzoate methanesulfonate (0.1%, w/v), followed by a surgical removal of parts of the ovary. The ovary lobes were carefully dissected and small pieces of oocytes were incubated in Ca^2+-free ND96 buffer (96 mM NaCl, 2 mM KCl, 1 mM MgCl2 buffered with 5 mM HEPES/NaOH, pH 7.5) supplemented with collagenase D (0.1%, w/v; Roche), BSA (0.5%, w/v), and 9 mm Na2HPO4 at 18 °C for 14-16 h while gentle shaking. After incubation, the oocytes were carefully washed several times with ND96 buffer (96 mM NaCl, 2 mM KCl, 1.8 mM CaCl2, 1 mM MgCl2 buffered with 5 mM HEPES/NaOH, pH 7.5) supplemented with 100 mg l^−1 gentamycin). Defolliculated and healthy-looking stage V-VI oocytes were manually selected for RNA microinjection. The RNA was generated as following: The codon-optimized sequences of PfCRT variants were cloned into the pSP64T expression vector. After vector linearization using the restriction endonucleases BamHI or SalI (New England Biolabs), transcription was performed using the in vitro SP6 mMessage mMachine Kit (Ambion)[34]. The obtained RNA was kept at −80 °C and diluted with nuclease-free water to a concentration of 0.6 μg μl^−1. Precision-bore glass capillary tubes (3.5-inch glass capillaries; Drummond Scientific Co.) were pulled on a vertical puller (P-87 Flaming/Brown micropipette puller, Sutter Instrument Co.), graduated, and placed on a microinjector (Nanoject II Auto-Nanoliter Injector, Drummond Scientific Co.). 50 nl of nuclease-free water alone (control oocytes) or 50 nl of 0.6 μg μl^−1 RNA were injected under stereomicroscopic control. Injected oocytes were incubated for 46–72 h at 18 °C with twice-daily buffer changes before usage in experiments.
Drug uptake assays were performed as described previously[21],[22],[24],[34]. […] The direction of radio-labeled drug transport is here from the mostly acidic extracellular solution (pH 4.5 or 6.0, as indicated) into the oocyte cytosol (pH ∼ 7.2), which corresponds to the efflux of drug from the acidic digestive vacuole (pH 5.2) into the parasite cytoplasm (pH 7.2). The topology of PfCRT in the oolemma is such that both the N- and C-terminus face the extracellular milieu[3],[22]. In the parasite, the N- and C-terminus face the lumen of the digestive vacuole. […] For determination of the amount of drug uptake for each oocyte, the reaction medium was removed and the oocytes were washed three times with 2 ml of ice-cold ND96 buffer. Each oocyte was individually transferred to a scintillation vial containing 5% sodium dodecyl sulfate (200 μl) for lysis. […] Oocytes that were injected with water instead of RNA were analyzed in parallel, representing the uptake of a drug by diffusion and/or endogenous permeation pathways. […] The specific PfCRT-mediated uptake was determined by subtracting the corresponding background value measured in water-injected oocytes from that of PfCRT-expressing oocytes. […]

PfCRT variant D329N = experiment: CQ uptake assay, oocytes expressing D329N
Description: as §1, §2
Drug uptake assays were performed as described previously[21],[22],[24],[34]. […] The direction of radio-labeled drug transport is here from the mostly acidic extracellular solution (pH 4.5 or 6.0, as indicated) into the oocyte cytosol (pH ∼ 7.2), which corresponds to the efflux of drug from the acidic digestive vacuole (pH 5.2) into the parasite cytoplasm (pH 7.2). The topology of PfCRT in the oolemma is such that both the N- and C-terminus face the extracellular milieu[3],[22]. In the parasite, the N- and C-terminus face the lumen of the digestive vacuole. CQ uptake kinetics were performed by incubating oocytes in ND96 buffer adjusted to a pH of 4.5, 5.0, 5.5, or 6.0 and supplemented with 50 nM [^3H]CQ and one of 7 different CQ concentrations (10 µM, 50 µM, 100 µM, 200 µM, 300 µM, 400 µM, 500 µM CQ). The reaction was stopped at the 60 min time point, which is in the linear uptake range[22],[34] (Supplementary Fig. 17). […] The radioactivity of each sample was measured using a liquid scintillation analyzer Tri-Carb 4910 TR (PerkinElmer). Oocytes that were injected with water instead of RNA were analyzed in parallel, representing the uptake of a drug by diffusion and/or endogenous permeation pathways. […]

PfCRT variant E207V = experiment: CQ uptake assay, oocytes expressing E207V
Description: as §1, §2
Drug uptake assays were performed as described previously[21],[22],[24],[34]. […] The direction of radio-labeled drug transport is here from the mostly acidic extracellular solution (pH 4.5 or 6.0, as indicated) into the oocyte cytosol (pH ∼ 7.2), which corresponds to the efflux of drug from the acidic digestive vacuole (pH 5.2) into the parasite cytoplasm (pH 7.2). The topology of PfCRT in the oolemma is such that both the N- and C-terminus face the extracellular milieu[3],[22]. In the parasite, the N- and C-terminus face the lumen of the digestive vacuole. CQ uptake kinetics were performed by incubating oocytes in ND96 buffer adjusted to a pH of 4.5, 5.0, 5.5, or 6.0 and supplemented with 50 nM [^3H]CQ and one of 7 different CQ concentrations (10 µM, 50 µM, 100 µM, 200 µM, 300 µM, 400 µM, 500 µM CQ). The reaction was stopped at the 60 min time point, which is in the linear uptake range[22],[34] (Supplementary Fig. 17). For determination of the amount of drug uptake for each oocyte, the reaction medium was removed and the oocytes were washed three times with 2 ml of ice-cold ND96 buffer. Each oocyte was individually transferred to a scintillation vial containing 5% sodium dodecyl sulfate (200 μl) for lysis. The radioactivity of each sample was measured using a liquid scintillation analyzer Tri-Carb 4910 TR (PerkinElmer). Oocytes that were injected with water instead of RNA were analyzed in parallel, representing the uptake of a drug by diffusion and/or endogenous permeation pathways. The resulting value represents the “background“ level of drug accumulation in oocytes (in-depth discussion in[22]). […]

[1] = pH 4.5, individual replicates, Fig 6b
[2] = pH 6.0, individual replicates, Fig 6b
[3] = ratio of activity pH 4.5 / pH 6.0
[4] = D329N, 50 µM CQ, 1 h, mean ± SEM
[5] = E207V, 50 µM CQ, 1 h, mean ± SEM

## CCN(CC)CCCC(C)Nc1ccnc2cc(Cl)ccc12 (stereo not shown) [CQ, chloroquine]
PfCRT variant E207T; E207T, 50 µM CQ, 1 h, mean ± SEM
  Activity at pH 6.0: 2.62 ± 0.31 pmol h-1 oocyte-1
PfCRT variant E207T; E207T, CQ transport at pH 4.5 / pH 6.0
  R-value: 0.91 ± 0.05
PfCRT variant E207T; [1]
  E207T transport activity pH 4.5: 3.35 pmol oocyte-1 h-1 and 2.14 pmol oocyte-1 h-1 and 1.74 pmol oocyte-1 h-1
PfCRT variant E207T; [2]
  E207T transport activity pH 6.0: 3.37 pmol oocyte-1 h-1 and 2.31 pmol oocyte-1 h-1 and 2.17 pmol oocyte-1 h-1
PfCRT variant E207T; [3]
  E207T R-value: 0.99 and 0.93 and 0.80
PfCRT variant D329N; [4]
  Activity at pH 4.5: 0.39 ± 0.14 pmol h-1 oocyte-1
  Activity at pH 6.0: 1.25 ± 0.32 pmol h-1 oocyte-1
PfCRT variant D329N; D329N, CQ transport at pH 4.5 / pH 6.0
  R-value: 0.32 ± 0.07
PfCRT variant D329N; pH 4.5, single replicates, Fig 1d left
  D329N transport activity pH 4.5: 0.14 pmol oocyte-1 h-1 and 0.71 pmol oocyte-1 h-1 and 0.33 pmol oocyte-1 h-1
PfCRT variant D329N; pH 6.0, single replicates, Fig 1d left
  D329N transport activity pH 6.0: 0.49 pmol oocyte-1 h-1 and 1.49 pmol oocyte-1 h-1 and 1.76 pmol oocyte-1 h-1
PfCRT variant E207V; [5]
  Activity at pH 4.5: 2.0 ± 0.13 pmol h-1 oocyte-1
  Activity at pH 6.0: 2.09 ± 0.15 pmol h-1 oocyte-1
PfCRT variant E207V; E207V, CQ transport at pH 4.5 / pH 6.0
  R-value: 0.96 ± 0.02
PfCRT variant E207V; [1]
  E207V transport activity pH 4.5: 2.33 pmol oocyte-1 h-1 and 1.85 pmol oocyte-1 h-1 and 1.83 pmol oocyte-1 h-1
PfCRT variant E207V; [2]
  E207V transport activity pH 6.0: 2.45 pmol oocyte-1 h-1 and 1.85 pmol oocyte-1 h-1 and 1.96 pmol oocyte-1 h-1
PfCRT variant E207V; [3]
  E207V R-value: 0.95 and 1.00 and 0.93

Reference: publication PMC10349806 (Nature Communications, 2023)
